The assay deals with MV-4-11 cells. The experiment in a line: Gene expression microarray analysis (Affymetrix PrimeView) and GSEA. Further details: RFU PODN (11730768_x_at) / Fold change /veh PODN (11730768_x_at) / RFU LINC00158 (11744669_a_at) / Fold change /veh LINC00158 (11744669_a_at) / RFU DUSP10 (11751237_a_at) / Fold change /veh DUSP10 (11751237_a_at) / RFU ID3 (11757404_x_at) / Fold change /veh ID3 (11757404_x_at) / RFU PLEKHG5 (11737974_s_at) / Fold change /veh PLEKHG5 (11737974_s_at) / RFU LRRC4B (11730491_at) / Fold change /veh LRRC4B (11730491_at) / RFU GIMAP4 (11747438_a_at) / Fold change /veh GIMAP4 (11747438_a_at) / RFU KRT8 (11758183_x_at) / Fold change /veh KRT8 (11758183_x_at) / RFU CNN1 (11734310_a_at) / Fold change /veh CNN1 (11734310_a_at) / RFU VPS37D (11726825_at) / Fold change /veh VPS37D (11726825_at) / RFU C10orf10 (11716522_x_at) / Fold change /veh C10orf10 (11716522_x_at) / RFU KIR2DL2 /// KIR2DL4 /// KIR2DL5A /// KIR2DL5B /// KIR2DS1 /// KIR2DS2 /// KIR2DS3 /// KIR2DS4 /// KIR3DL3 /// KIR3DL3 /// KIR3DS1 (11738374_at) / Fold change /veh KIR2DL2 /// KIR2DL4 /// KIR2DL5A /// KIR2DL5B /// KIR2DS1 /// KIR2DS2 /// KIR2DS3 /// KIR2DS4 /// KIR3DL3 /// KIR3DL3 /// KIR3DS1 (11738374_at) / RFU C1QL1 (11718748_at) / Fold change /veh C1QL1 (11718748_at) / RFU TMPRSS4 (11747572_a_at) / Fold change /veh TMPRSS4 (11747572_a_at) / RFU HAMP (11756126_x_at) / Fold change /veh HAMP (11756126_x_at) / RFU RNFT2 (11725882_a_at) / Fold change /veh RNFT2 (11725882_a_at) / RFU NR4A2 (11747474_a_at) / Fold change /veh NR4A2 (11747474_a_at) / RFU ABCC12 (11746883_a_at) / Fold change /veh ABCC12 (11746883_a_at) / RFU TMEM136 (11760407_x_at) / Fold change /veh TMEM136 (11760407_x_at) / RFU CLDN22 /// WWC2 (11732394_at) / Fold change /veh CLDN22 /// WWC2 (11732394_at) / RFU HLA-DPB1 (11760878_x_at) / Fold change /veh HLA-DPB1 (11760878_x_at) / RFU SPINT1 (11716480_a_at) / Fold change /veh SPINT1 (11716480_a_at) / RFU GAP43 (11754022_s_at) / Fold change /veh GAP43 (11754022_s_at) / RFU A4GNT (11735810_at) / Fold change /veh A4GNT (11735810_at) / RFU PRB3 (11715151_x_at) / Fold change /veh PRB3 (11715151_x_at) / RFU TUBB4B (11761932_at) / Fold change /veh TUBB4B (11761932_at) / RFU CAPN14 (11732068_a_at) / Fold change /veh CAPN14 (11732068_a_at) / RFU TMCC2 (11721928_a_at) / Fold change /veh TMCC2 (11721928_a_at) / RFU IRGQ (11745062_a_at) / Fold change /veh IRGQ (11745062_a_at) / RFU FAM174B (11720279_a_at) / Fold change /veh FAM174B (11720279_a_at) / RFU TMPRSS4 (11748680_a_at) / Fold change /veh TMPRSS4 (11748680_a_at) / RFU FAM212B (11763350_a_at) / Fold change /veh FAM212B (11763350_a_at) / RFU PLEKHG5 (11743358_a_at) / Fold change /veh PLEKHG5 (11743358_a_at) / RFU ZSCAN30 (11745921_a_at) / Fold change /veh ZSCAN30 (11745921_a_at) / RFU CMKLR1 (11741424_a_at) / Fold change /veh CMKLR1 (11741424_a_at) / RFU LOC101060620 /// MAPK8IP1 (11723275_at) / Fold change /veh LOC101060620 /// MAPK8IP1 (11723275_at) / RFU SPTSSB (11747773_x_at) / Fold change /veh SPTSSB (11747773_x_at) / RFU PRSS12 (11739890_at) / Fold change /veh PRSS12 (11739890_at) / RFU BIN1 (11741810_x_at) / Fold change /veh BIN1 (11741810_x_at) / RFU WNT11 (11732464_a_at) / Fold change /veh WNT11 (11732464_a_at) / RFU C10orf10 (11716521_a_at) / Fold change /veh C10orf10 (11716521_a_at) / RFU C5orf56 (11738089_at) / Fold change /veh C5orf56 (11738089_at) / RFU CYB561 (11721691_x_at) / Fold change /veh CYB561 (11721691_x_at) / RFU ANKRD19P (11752326_a_at) / Fold change /veh ANKRD19P (11752326_a_at) / RFU OR2T12 /// OR2T33 /// OR2T8 (11738714_s_at) / Fold change /veh OR2T12 /// OR2T33 /// OR2T8 (11738714_s_at) / RFU VCAN (11748164_a_at) / Fold change /veh VCAN (11748164_a_at) / RFU JSRP1 (11732532_at) / Fold change /veh JSRP1 (11732532_at) / RFU KRTAP10-11 (11738290_x_at) / Fold change /veh KRTAP10-11 (11738290_x_at) / RFU MYO3A (11730013_a_at) / Fold change /veh MYO3A (11730013_a_at) / RFU EBF3 (11725865_a_at) / Fold change /veh EBF3 (11725865_a_at) / RFU CAMK2N1 (11719241_x_at) / Fold change /veh CAMK2N1 (11719241_x_at) / RFU C5orf56 (11738088_a_at) / Fold change /veh C5orf56 (11738088_a_at) / RFU OLFML3 (11715873_a_at) / Fold change /veh OLFML3 (11715873_a_at) / RFU LOC100653217 /// NTM (11731650_a_at) / Fold change /veh LOC100653217 /// NTM (11731650_a_at) / RFU MAPK11 (11762145_a_at) / Fold change /veh MAPK11 (11762145_a_at) / RFU FIZ1 (11724087_x_at) / Fold change /veh FIZ1 (11724087_x_at) / RFU OASL (11726364_x_at) / Fold change /veh OASL (11726364_x_at) / RFU SOX15 (11748057_x_at) / Fold change /veh SOX15 (11748057_x_at) / RFU CD79A (11719716_a_at) / Fold change /veh CD79A (11719716_a_at) / RFU HIST1H1D (11736915_at) / Fold change /veh HIST1H1D (11736915_at) / RFU CASKIN2 (11723855_a_at) / Fold change /veh CASKIN2 (11723855_a_at) / RFU LOC730098 (11760151_x_at) / Fold change /veh LOC730098 (11760151_x_at) / RFU OR4N2 (11742367_at) / Fold change /veh OR4N2 (11742367_at) / RFU PRRT2 (11749266_a_at) / Fold change /veh PRRT2 (11749266_a_at) / RFU SNX32 (11753110_a_at) / Fold change /veh SNX32 (11753110_a_at) / RFU CDHR5 (11726645_a_at) / Fold change /veh CDHR5 (11726645_a_at) / RFU RCAN1 (11760418_a_at) / Fold change /veh RCAN1 (11760418_a_at) / RFU FAM167A (11723789_a_at) / Fold change /veh FAM167A (11723789_a_at) / RFU FAM26E (11764081_at) / Fold change /veh FAM26E (11764081_at) / RFU ISYNA1 (11749810_s_at) / Fold change /veh ISYNA1 (11749810_s_at) / RFU ACY1 (11761880_at) / Fold change /veh ACY1 (11761880_at) / RFU 11764098_at / Fold change /veh 11764098_at / RFU SAMD14 (11745864_x_at) / Fold change /veh SAMD14 (11745864_x_at) / RFU NPB (11741838_a_at) / Fold change /veh NPB (11741838_a_at) / RFU TMPRSS6 (11731388_a_at) / Fold change /veh TMPRSS6 (11731388_a_at) / RFU KRTAP10-2 (11738614_at) / Fold change /veh KRTAP10-2 (11738614_at) / RFU ARHGAP8 /// PRR5-ARHGAP8 (11727945_x_at) / Fold change /veh ARHGAP8 /// PRR5-ARHGAP8 (11727945_x_at) / RFU KRTAP5-7 /// NADSYN1 (11734609_at) / Fold change /veh KRTAP5-7 /// NADSYN1 (11734609_at) / RFU RASL12 (11751679_a_at) / Fold change /veh RASL12 (11751679_a_at) / RFU CDKN2B (11736163_a_at) / Fold change /veh CDKN2B (11736163_a_at) / RFU PRF1 (11729649_at) / Fold change /veh PRF1 (11729649_at) / RFU, ZNF638 /// ZNF638-IT1 / Fold change vs veh, ZNF638 /// ZNF638-IT1 / RFU, PANK3 / Fold change vs veh, PANK3 / RFU, SH3YL1 / Fold change vs veh, SH3YL1 / RFU, ZEB2 / Fold change vs veh, ZEB2 / RFU, NRIP1 / Fold change vs veh, NRIP1 / RFU, PTTG1IP / Fold change vs veh, PTTG1IP / RFU, CAPN2 / Fold change vs veh, CAPN2 / RFU, MED14 / Fold change vs veh, MED14 / RFU, SNORA58 / Fold change vs veh, SNORA58 / RFU, C1orf63 / Fold change vs veh, C1orf63 / RFU, LRRFIP1 / Fold change vs veh, LRRFIP1 / RFU, NDUFAF7 / Fold change vs veh, NDUFAF7 / RFU, SLC12A2 / Fold change vs veh, SLC12A2 / RFU, IBTK / Fold change vs veh, IBTK / RFU, ESF1 / Fold change vs veh, ESF1 / Fold change vs veh, TMEM50B / RFU, TAOK1 / Fold change vs veh, TAOK1 / RFU, ACBD3 / Fold change vs veh, ACBD3 / RFU, TMA16 / Fold change vs veh, TMA16 / RFU, RWDD3 / Fold change vs veh, RWDD3 / RFU, BCAT1 / Fold change vs veh, BCAT1 / RFU, EDEM3 / Fold change vs veh, EDEM3 / RFU, TMEM33 / Fold change vs veh, TMEM33 / RFU, WDR75 / Fold change vs veh, WDR75 / RFU, AHCTF1 / Fold change vs veh, AHCTF1 / RFU, TFRC / Fold change vs veh, TFRC / RFU, ZDHHC17 / Fold change vs veh, ZDHHC17 / RFU, NOM1 / Fold change vs veh, NOM1 / RFU, ARL8B / Fold change vs veh, ARL8B / RFU, ZBTB11 / Fold change vs veh, ZBTB11 / RFU, TAMM41 / Fold change vs veh, TAMM41 / RFU, KIAA1704 /// LOC100996395 / Fold change vs veh, KIAA1704 /// LOC100996395 / RFU, ING1 / Fold change vs veh, ING1 / RFU, TRMT61B / Fold change vs veh, TRMT61B / RFU, FUBP3 / Fold change vs veh, FUBP3 / RFU, TP53 / Fold change vs veh, TP53 / RFU, TNKS2 / Fold change vs veh, TNKS2 / RFU, ZFP14 / Fold change vs veh, ZFP14 / RFU, ACTR2 / Fold change vs veh, ACTR2 / RFU, PPP3R1 / Fold change vs veh, PPP3R1 / RFU, PIK3R1 / Fold change vs veh, PIK3R1 / RFU, HNRNPA1 / Fold change vs veh, HNRNPA1 / RFU, RNF170 / Fold change vs veh, RNF170 / RFU, ZNF28 / Fold change vs veh, ZNF28 / RFU, RNGTT / Fold change vs veh, RNGTT / RFU, OGT / Fold change vs veh, OGT / RFU, BRD1 / Fold change vs veh, BRD1 / RFU, MARS / Fold change vs veh, MARS / RFU, ZNF655 / Fold change vs veh, ZNF655 / RFU, FAHD1 / Fold change vs veh, FAHD1 / RFU, BDP1 / Fold change vs veh, BDP1 / RFU, LRRCC1 / Fold change vs veh, LRRCC1 / RFU, ARID1A / Fold change vs veh, ARID1A / RFU, ZNF146 / Fold change vs veh, ZNF146 / RFU, ZNF330 / Fold change vs veh, ZNF330 / RFU, GPN3 / Fold change vs veh, GPN3 / RFU, C9orf123 / Fold change vs veh, C9orf123 / RFU, N4BP2L2 / Fold change vs veh, N4BP2L2 / RFU, ARFIP1 / Fold change vs veh, ARFIP1 / RFU, FAM179B / Fold change vs veh, FAM179B / RFU, BCL10 / Fold change vs veh, BCL10 / RFU, UHRF1BP1L / Fold change vs veh, UHRF1BP1L / RFU, BET1 / Fold change vs veh, BET1 / RFU, CNOT2 / Fold change vs veh, CNOT2 / RFU, ZNF268 / Fold change vs veh, ZNF268 / Fold change vs veh, ZNF507 / RFU, DGCR2 / Fold change vs veh, DGCR2 / RFU, WDSUB1 / Fold change vs veh, WDSUB1 / Fold change vs veh, HSP90B1 /// MIR3652 / RFU, ADSS / Fold change vs veh, ADSS / RFU, GK / Fold change vs veh, GK / RFU, ZNF148 / Fold change vs veh, ZNF148 / RFU, TAF9 / Fold change vs veh, TAF9 / RFU, SLC1A5 / Fold change vs veh, SLC1A5 / RFU, SLMO2 / Fold change vs veh, SLMO2 / RFU, ABCC4 / Fold change vs veh, ABCC4 / RFU, LOC101060439 /// RAP1B / Fold change vs veh, LOC101060439 /// RAP1B / RFU, RFX7 / Fold change vs veh, RFX7 / RFU, GTPBP10 / Fold change vs veh, GTPBP10 / RFU, CNEP1R1 / Fold change vs veh, CNEP1R1 / RFU, BIVM-ERCC5 /// ERCC5 / Fold change vs veh, BIVM-ERCC5 /// ERCC5 / RFU, ILF3 / Fold change vs veh, ILF3 / RFU 11762660_at / Fold change /veh 11762660_at / RFU VCAN (11757783_s_at) / Fold change /veh VCAN (11757783_s_at) / RFU DDX43 (11728927_at) / Fold change /veh DDX43 (11728927_at) / RFU KRT8 (11758188_x_at) / Fold change /veh KRT8 (11758188_x_at) / RFU NKD1 (11759106_at) / Fold change /veh NKD1 (11759106_at) / RFU SRD5A1 (11742802_a_at) / Fold change /veh SRD5A1 (11742802_a_at) / RFU TPSAB1 /// TPSB2 (11721975_s_at) / Fold change /veh TPSAB1 /// TPSB2 (11721975_s_at) / RFU GSTM3 (11746129_a_at) / Fold change /veh GSTM3 (11746129_a_at) / RFU IL23R (11737362_x_at) / Fold change /veh IL23R (11737362_x_at) / RFU TMEM51 (11727254_a_at) / Fold change /veh TMEM51 (11727254_a_at) / RFU PIWIL2 (11732686_x_at) / Fold change /veh PIWIL2 (11732686_x_at) / RFU ORM1 (11744905_x_at) / Fold change /veh ORM1 (11744905_x_at) / RFU CCDC152 (11743942_at) / Fold change /veh CCDC152 (11743942_at) / RFU ECM1 (11717891_a_at) / Fold change /veh ECM1 (11717891_a_at) / RFU IL23R (11748794_a_at) / Fold change /veh IL23R (11748794_a_at) / RFU TNFAIP8L3 (11732012_x_at) / Fold change /veh TNFAIP8L3 (11732012_x_at) / RFU MBOAT4 (11741988_at) / Fold change /veh MBOAT4 (11741988_at) / RFU 11764193_at / Fold change /veh 11764193_at / RFU TMEM53 (11763286_at) / Fold change /veh TMEM53 (11763286_at) / RFU MAGEB2 (11727129_at) / Fold change /veh MAGEB2 (11727129_at) / RFU TMEM200A (11744735_a_at) / Fold change /veh TMEM200A (11744735_a_at) / RFU CCDC152 (11751479_a_at) / Fold change /veh CCDC152 (11751479_a_at) / RFU FAM211A (11726209_a_at) / Fold change /veh FAM211A (11726209_a_at) / RFU RGS16 (11746705_a_at) / Fold change /veh RGS16 (11746705_a_at) / RFU VCAN (11755009_s_at) / Fold change /veh VCAN (11755009_s_at) / RFU RHOB (11743442_s_at) / Fold change /veh RHOB (11743442_s_at) / RFU RGS16 (11720943_a_at) / Fold change /veh RGS16 (11720943_a_at) / RFU RGS16 (11720944_at) / Fold change /veh RGS16 (11720944_at) / RFU, VPS4B / Fold change vs veh, VPS4B / RFU, CREB1 / Fold change vs veh, CREB1 / RFU, DNAJC13 / Fold change vs veh, DNAJC13 / RFU, GNAQ / Fold change vs veh, GNAQ / RFU, CDK5R1 / Fold change vs veh, CDK5R1 / RFU, ZRANB3 / Fold change vs veh, ZRANB3 / RFU, CUL4A / Fold change vs veh, CUL4A / RFU, CCNY / Fold change vs veh, CCNY / RFU, UFL1 / Fold change vs veh, UFL1 / RFU, COG3 / Fold change vs veh, COG3 / RFU, DIAPH2 / Fold change vs veh, DIAPH2 / RFU, SKA2 / Fold change vs veh, SKA2 / RFU, AFF3 / Fold change vs veh, AFF3 / RFU, LMF1 / Fold change vs veh, LMF1 / RFU, IPO11 / Fold change vs veh, IPO11 / RFU, DFFB / Fold change vs veh, DFFB / RFU, FOXP1 / Fold change vs veh, FOXP1 / RFU, CARD8 / Fold change vs veh, CARD8 / RFU, STRN3 / Fold change vs veh, STRN3 / RFU, ADK / Fold change vs veh, ADK / RFU, RASSF2 / Fold change vs veh, RASSF2 / RFU, WIPF1 / Fold change vs veh, WIPF1 / RFU, LARP1B / Fold change vs veh, LARP1B / RFU, RASA1 / Fold change vs veh, RASA1 / RFU, RB1 / Fold change vs veh, RB1 / RFU, PPFIA1 / Fold change vs veh, PPFIA1 / RFU, MAT2A / Fold change vs veh, MAT2A / RFU, CCT5 / Fold change vs veh, CCT5 / RFU, WDR92 / Fold change vs veh, WDR92 / RFU, CUX1 / Fold change vs veh, CUX1 / RFU, TTC7A / Fold change vs veh, TTC7A / RFU, TMEM135 / Fold change vs veh, TMEM135 / RFU, DEPTOR / Fold change vs veh, DEPTOR / RFU, CPM / Fold change vs veh, CPM / RFU, DNAJB6 / Fold change vs veh, DNAJB6 / RFU, CACNA2D3 / Fold change vs veh, CACNA2D3 / RFU, DTX4 / Fold change vs veh, DTX4 / RFU, TFCP2 / Fold change vs veh, TFCP2 / RFU, GMCL1 /// GMCL1P1 / Fold change vs veh, GMCL1 /// GMCL1P1 / RFU, AEBP2 / Fold change vs veh, AEBP2 / RFU, SNHG1 /// SNORD22 /// SNORD25 /// SNORD26 /// SNORD27 /// SNORD28 /// SNORD29 /// SNORD31 / Fold change vs veh, SNHG1 /// SNORD22 /// SNORD25 /// SNORD26 /// SNORD27 /// SNORD28 /// SNORD29 /// SNORD31 / Fold change (Aza/veh), C12orf56 (ProbeSet 11735607_a_at) / Fold change (ACY-1035/veh), C12orf56 (ProbeSet 11735607_a_at) / Fold change (Aza/veh), FGFR1OP (ProbeSet 11751329_s_at) / Fold change (ACY-1035/veh), FGFR1OP (ProbeSet 11751329_s_at) / Fold change (Aza/veh), VPS36 (ProbeSet 11739960_a_at) / Fold change (ACY-1035/veh), VPS36 (ProbeSet 11739960_a_at) / RFU SYPL1 (11715823_x_at) / Fold change /veh SYPL1 (11715823_x_at) / RFU IGFBP7 (11715501_s_at) / Fold change /veh IGFBP7 (11715501_s_at) / RFU REEP3 (11722064_at) / Fold change /veh REEP3 (11722064_at) / RFU IGLL1 (11728026_x_at) / Fold change /veh IGLL1 (11728026_x_at): dose or concentration left out as unconfirmed. The settings on record: MV-4-11 cells, 48 hours. In kind it is cell-based, human.

SMILES strings stand for the structures.

In the case of `Nc1ncn([C@@H]2O[C@H](CO)[C@@H](O)[C@H]2O)c(=O)n1` [azacitidine], the “Fold change /veh OR2T12 /// OR2T33 /// OR2T8 (11738714_s_at)” value is on record as 1.07.
